Test results: patent US9132130B2, “Purine derivative and antitumor agent using same” (ZENYAKU KOGYO KABUSHIKI KAISHA, priority 2009, dated 2015)
Where a name gives a salt, the structure may show the parent alone.

How the values were obtained:
Format in all cases: cell-based
[1] = tested on: PC-3 cells (human prostate cancer cells); assay: in vitro antitumor activity test, PC-3 cells, XTT colorimetry; conditions: PC-3 human prostate cancer cells, cultured 72 hours
Procedure: (§1) WiDr cells (human colon cancer cells) subcultured in a culture medium composed of a MEM medium added with 10% fetal bovine serum, 25 mM HEPES and 0.1 mg/ml kanamycin under the conditions of 37° C. and 5% carbon dioxide gas were made into single floating cells by treating with trypsin/EDTA, and a single cell suspension of 3×10^4 cells per 1 ml was prepared using the MEM medium (added with 10% fetal bovine serum, 25 mM HEPES and 0.1 mg/ml kanamycin). After dissolving the test compounds in DMSO, they were diluted in a RPMI 1640 medium (added with 10% fetal bovine serum, 25 mM HEPES and 0.1 mg/ml kanamycin) and prepared so that the concentrations were 2.0×10^−9 to 2.0×10^−4 M.
(§2) 0.1 ml of the cell suspension was placed into each well of 96-well microplates, cultured for 24 hours to allow the cells to adhere to the microplates, then 0.1 ml of the sample solutions were added, and cultured for 72 hours at 37° C. in 5% carbon dioxide gas.
(§3) Afterwards, the level of growth inhibition at various sample concentrations was obtained using XTT colorimetry, and concentrations at which growth was inhibited by 50% (GI50 values [μM]) were calculated.
(§4) In addition, cells other than WiDr cells that were used, and the condition for preparing each single cell suspension were as follows.
PC-3 cells (human prostate cancer cells): 2×10^4 cells/ml

[2] = tested on: A549 cells (human lung cancer cells); assay: in vitro antitumor activity test, A549 cells, XTT colorimetry; conditions: cultured 72 hours
Procedure: as §1, §2, §3, §4
A549 cells (human lung cancer cells): 2×10^4 cells/ml

[3] = tested on: WiDr cells (human colon cancer cells); assay: in vitro antitumor activity test, WiDr cells, XTT colorimetry; conditions: cultured 72 hours
Procedure: as §1, §2, §3

[4] = tested on: P388 cells (mouse leukemia cells); assay: in vitro antitumor activity test, P388 cells, XTT colorimetry; conditions: cultured 72 hours
Procedure: P388 cells (mouse leukemia cells) passaged in the abdominal cavity of DBA/2 mice were extracted with ascitic fluid, and cultured in a RPMI 1640 medium (added with 10% fetal bovine serum, 25 mM HEPES, 0.1 mg/ml kanamycin and 5 μM 2-hydroxyethyldisulfide) at 37° C. in 5% carbon dioxide gas. After culturing for 16 hours, floating P388 cells were made into a single cell suspension of 4×10^4 cells per 1 ml using the same RPMI 1640 medium as given above. The test substances were dissolved in DMSO, then diluted in a RPMI 1640 medium (added with 10% fetal bovine serum, 25 mM HEPES and 0.1 mg/ml kanamycin) and prepared so that the concentrations were 2.0×10^−9 to 2.0×10^−4 M.
0.1 ml of the cell suspension was placed into each well of 96-well microplates, then 0.1 ml of the sample solutions were added, and cultured for 72 hours at 37° C. in 5% carbon dioxide gas.
as §3

[5] = tested on: B16F10 cells (mouse melanoma [malignant melanoma] cells); assay: in vitro antitumor activity test, B16F10 cells, XTT colorimetry; conditions: B16-F10, cultured 72 hours
Procedure: as §1, §2, §3, §4
B16F10 cells (mouse melanoma [malignant melanoma] cells): 1×10^4 cells/ml

Row | SMILES | GI50 [1] | GI50 [2] | GI50 [3] | GI50 [4] | GI50 [5]
1 | CCOc1ccc(CSc2nc(N3C=COCC3)c3ncn(CC)c3n2)cc1N [Compound 156, 2-(3-amino-4-ethoxybenzylsulfanyl)-6-(2,3-dihydro-[1,4]oxadin-4-yl)-9-ethyl-9H-purine] | 1040 nM | 700 nM | 3380 nM | 740 nM | 1400 nM
2 | CCc1nc2c(N3CCOCC3)nc(SCc3ccc(OC)c(Cl)c3)nc2n1C [Compound 16, 2-(3-chloro-4-methoxybenzylsulfanyl)-8-ethyl-9-methyl-6-morpholino-9H-purine] | 910 nM | 1750 nM | 1220 nM | 850 nM | 1680 nM
3 | CCc1nc2c(N3CCOCC3)nc(SCc3ccc(OC)c(NC(=O)COC)c3)nc2n1C [Compound 63, 8-ethyl-2-(3-methoxyacetylamino-4-methoxybenzylsulfanyl)-9-methyl-6-morpholino-9H-purine] | 870 nM | 1600 nM | 3300 nM | 1500 nM | 1900 nM
4 | C/C=C/c1nc(SCc2ccc(OC)c(N)c2)nc2c1ncn2C [Compound 173, 2-(3-amino-4-methoxybenzylsulfanyl)-9-methyl-6-(1-trans-propenyl)-9H-purine] | 380 nM | 160 nM | 1510 nM | 90 nM | 250 nM
5 | COc1ccc(CSc2nc(-c3ccc([N+](=O)[O-])cc3)c3ncn(C)c3n2)cc1 [Compound 166, 2-(4-methoxybenzylsulfanyl)-9-methyl-6-(4-nitrophenyl)-9H-purine] | 1390 nM | 670 nM | 820 nM | 280 nM | 1550 nM
6 | CCN(CC)c1nc(SCc2ccc(OC)cc2)nc2c1ncn2C [Compound 25, 6-diethylamino-2-(4-methoxybenzylsulfanyl)-9-methyl-9H-purine] | 1130 nM | 950 nM | 820 nM | 680 nM | 1380 nM
7 | COc1ccc(CSc2nc(N3CCOCC3)c3ncn(C)c3n2)cc1N [Compound 18, 2-(3-amino-4-methoxybenzylsulfanyl)-9-methyl-6-morpholino-9H-purine] | 690 nM | 950 nM | 3140 nM | 350 nM | 1090 nM
8 | CCc1nc2c(N3CCOCC3)nc(SCc3ccc(OC)c(F)c3)nc2n1CC [Compound 123, 8,9-diethyl-2-(3-fluoro-4-methoxybenzylsulfanyl)-6-morpholino-9H-purine] | 240 nM | 420 nM | 200 nM | 130 nM | 370 nM
9 | CCOc1ccc(CSc2nc(N3C=COCC3)c3ncn(CC)c3n2)cc1[N+](=O)[O-] [Compound 155, 6-(2,3-dihydro-[1,4]oxadin-4-yl)-9-ethyl-2-(3-nitro-4-ethoxybenzylsulfanyl)-9H-purine] | 1500 nM | 500 nM | 940 nM | 490 nM | 1310 nM
10 | COc1ccc(CSc2nc(N(C)C)c3ncn(C)c3n2)cc1N [Compound 19, 2-(3-amino-4-methoxybenzylsulfanyl)-6-dimethylamino-9-methyl-9H-purine] | 400 nM | 450 nM | 4040 nM | 320 nM | 450 nM
11 | CCc1nc2c(N3CCOCC3)nc(SCCCc3ccc(OC)cc3)nc2n1C [Compound 50, 8-ethyl-2-[3-(4-methoxyphenyl)propylsulfanyl]-9-methyl-6-morpholino-9H-purine] | 620 nM | 890 nM | 1020 nM | 380 nM | 1430 nM
12 | CCc1nc2c(N3C=COCC3)nc(SCc3ccc(OC)cc3)nc2n1CC [Compound 158, 8,9-diethyl-6-(2,3-dihydro-[1,4]oxadin-4-yl)-2-(4-methoxybenzylsulfanyl)-9H-purine] | 310 nM | 410 nM | 350 nM | 240 nM | 420 nM
13 | COc1ccc(CSc2nc(N3C=COCC3)c3ncn(C)c3n2)cc1 [Compound 147, 6-(2,3-dihydro-[1,4]oxadin-4-yl)-2-(4-methoxybenzylsulfanyl)-9-methyl-9H-purine] | 120 nM | 50 nM | 40 nM | 40 nM | 80 nM
14 | CCc1ccc(CSc2nc(N3CCOCC3)c3nc(CC)n(C)c3n2)cc1 [Compound 12, 8-ethyl-2-(4-ethylbenzylsulfanyl)-9-methyl-6-morpholino-9H-purine] | 850 nM | 1890 nM | 1240 nM | 1250 nM | 3910 nM
15 | CNc1nc(SCc2ccc(OC)c(N)c2)nc2c1ncn2C [Compound 45, 2-(3-amino-4-methoxybenzylsulfanyl)-9-methyl-6-methylamino-9H-purine] | 150 nM | 120 nM | 830 nM | 90 nM | 280 nM
16 | CNc1nc(SCc2ccc(OC)c(C#N)c2)nc2c1ncn2C [Compound 72, 2-(3-cyano-4-methoxybenzylsulfanyl)-6-methylamino-9-methyl-9H-purine] | < 40 nM | < 40 nM | < 40 nM | < 40 nM | < 40 nM
17 | CCN(C)c1nc(SCc2ccc(OC)cc2)nc2c1ncn2C [Compound 75, 6-(N-ethyl-N-methylamino)-2-(4-methoxybenzylsulfanyl)-9-methyl-9H-purine] | 560 nM | 520 nM | 380 nM | 380 nM | 380 nM
18 | Sc1ncnc2nc[nH]c12 [Compound A, 6-mercaptopurine, reference compound] | > 100000 nM | > 100000 nM | 70000 nM | 22500 nM | 22600 nM
19 | COc1ccc(CSc2nc(N3CCOCC3)c3ncn(C)c3n2)cc1C#N [Compound 80, 2-(3-cyano-4-methoxybenzylsulfanyl)-9-methyl-6-morpholino-9H-purine] | 70 nM | 140 nM | 160 nM | 70 nM | 210 nM
20 | COc1ccc(CSc2nc(N(C)OC)c3ncn(C)c3n2)cc1N [Compound 145, 2-(3-amino-4-methoxybenzylsulfanyl)-6-(N-methoxy-N-methylamino)-9-methyl-9H-purine] | 130 nM | 80 nM | 810 nM | < 40 nM | 190 nM
21 | CCc1nc2c(N3CCOCC3)nc(SCc3ccc(OC)c(NC(=O)CN)c3)nc2n1C [Compound 28, 2-[3-(2-aminoacetylamino)-4-methoxybenzylsulfanyl]-8-ethyl-9-methyl-6-morpholino-9H-purine hydrochloride] | 990 nM | 900 nM | 1200 nM | 810 nM | 1140 nM
22 | CCOc1ccc(CSc2nc(N(C)C)c3ncn(C)c3n2)cc1N [Compound 140, 2-(3-amino-4-ethoxybenzylsulfanyl)-6-dimethylamino-9-methyl-9H-purine] | 110 nM | 90 nM | 360 nM | 50 nM | 160 nM
23 | CCN(C)c1nc(SCc2ccc(OC)c(F)c2)nc2c1ncn2C [Compound 82, 6-(N-ethyl-N-methylamino)-2-(3-fluoro-4-methoxybenzylsulfanyl)-9-methyl-9H-purine] | 300 nM | 140 nM | 210 nM | 110 nM | 300 nM
24 | CCNc1nc(SCc2ccc(OC)cc2)nc2c1ncn2C [Compound 64, 6-ethylamino-2-(4-methoxybenzylsulfanyl)-9-methyl-9H-purine] | 450 nM | 480 nM | 310 nM | 380 nM | 380 nM
25 | CCc1nc2c(N3CCOCC3)nc(SCc3ccc(C)cc3)nc2n1C [Compound 8, 8-ethyl-9-methyl-2-(4-methylbenzylsulfanyl)-6-morpholino-9H-purine] | 610 nM | 2200 nM | 1470 nM | 1020 nM | 1700 nM
26 | COc1ccc(CSc2nc(-c3ccsc3)c3ncn(C)c3n2)cc1 [Compound 168, 2-(4-methoxybenzylsulfanyl)-9-methyl-6-(3-thienyl)-9H-purine] | 320 nM | 220 nM | 140 nM | 140 nM | 210 nM
